Experimental data taken from ChEMBL document CHEMBL1201862, “PubChem BioAssay data set” (2004).
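Step 1: Grow cells in 96-well plates. Step 2: Expose to compound for 48 hours at 5 concentrations. Step 3: Interpolate endpoints linearly; if unreached, use highest concentration. GI50 is the concentration that inhibits growth by half.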 Active and inactive are the calls of the source. Rule as the data show it: active = GI50 up to about 1.1 µM and inactive = higher.

What was measured:
Experiment in all cases: NCI anticancer screen, dose series, 48 h
786-0 = test system: 786-0
A498 = test system: A498
A549 = test system: A549
ACHN = test system: ACHN
BT-549 = test system: BT-549
CAKI-1 = test system: CAKI-1
CCRF-CEM = test system: CCRF-CEM
COLO 205 = test system: COLO 205
DU-145 = test system: DU-145
EKVX = test system: EKVX
HCC 2998 = test system: HCC 2998
HCT-116 = test system: HCT-116
HCT-15 = test system: HCT-15
HL-60 = test system: HL-60
HOP-62 = test system: HOP-62
HOP-92 = test system: HOP-92
HT-29 = test system: HT-29
Hs-578T = test system: Hs-578T
IGROV-1 = test system: IGROV-1
K562 = test system: K562
KM12 = test system: KM12
LOX IMVI = test system: LOX IMVI
M14 = test system: M14
MCF7 = test system: MCF7
MDA-MB-231 = test system: MDA-MB-231
MDA-MB-435 = test system: MDA-MB-435
MDA-N = test system: MDA-N
MOLT-4 = test system: MOLT-4
Malme-3M = test system: Malme-3M
NCI-H226 = test system: NCI-H226
NCI-H23 = test system: NCI-H23
NCI-H460 = test system: NCI-H460
NCI-H522 = test system: NCI-H522
NCI/ADR-RES = test system: NCI/ADR-RES
OVCAR-3 = test system: OVCAR-3
OVCAR-4 = test system: OVCAR-4
OVCAR-5 = test system: OVCAR-5
OVCAR-8 = test system: OVCAR-8
PC-3 = test system: PC-3
RPMI-8226 = test system: RPMI-8226
RXF 393 = test system: RXF 393
SF-268 = test system: SF-268
SF-295 = test system: SF-295
SF-539 = test system: SF-539
SK-MEL-28 = test system: SK-MEL-28
SK-MEL-2 = test system: SK-MEL-2
SK-MEL-5 = test system: SK-MEL-5
SK-OV-3 = test system: SK-OV-3
SN12C = test system: SN12C
SNB-19 = test system: SNB-19
SNB-75 = test system: SNB-75
SR = test system: SR
SW-620 = test system: SW-620
T47D = test system: T47D
TK-10 = test system: TK-10
U-251 = test system: U-251
UACC-257 = test system: UACC-257
UACC-62 = test system: UACC-62
UO-31 = test system: UO-31

In the case of O=C(Nn1cc(F)c(=O)[nH]c1=O)C12CC3CC(CC(C3)C1)C2, the GI50 (786-0) is reported as 10.7 µM (inactive), the GI50 (A498) is reported as 7.24 µM (inactive) and the GI50 (A549) is reported as 6.27 µM (inactive). For the same compound, the GI50 (ACHN) was 10.7 µM (inactive), the GI50 (BT-549) was 17.5 µM (inactive) and the GI50 (CAKI-1) was 4.6 µM (inactive). For the same compound, the GI50 (CCRF-CEM) was 13 µM (inactive), the GI50 (COLO 205) was 9.75 µM (inactive) and the GI50 (DU-145) was 8.3 µM (inactive). For the same compound, the GI50 (EKVX) was 24 µM (inactive), the GI50 (HCC 2998) was 0.646 µM (active) and the GI50 (HCT-116) was 5.77 µM (inactive). The GI50 (HCT-15) was 6.56 µM, the GI50 (HL-60) was 9.46 µM (inactive) and the GI50 (HOP-62) was 12 µM (inactive). For the same compound, the GI50 (HOP-92) was 8.69 µM (inactive), the GI50 (HT-29) was 8.17 µM (inactive) and the GI50 (Hs-578T) was 25.4 µM (inactive). The GI50 (IGROV-1) was 6.61 µM (inactive), the GI50 (K562) was 14.6 µM (inactive) and the GI50 (KM12) was 6.27 µM (inactive). The GI50 (LOX IMVI) was 7.8 µM (inactive), the GI50 (M14) was 15.1 µM (inactive) and the GI50 (MCF7) was 5.22 µM (inactive). For the same compound, the GI50 (MDA-MB-231) was 12.7 µM (inactive), the GI50 (MDA-MB-435) was 10 µM (inactive) and the GI50 (MDA-N) was 8.97 µM (inactive). For the same compound, the GI50 (MOLT-4) was 16 µM (inactive), the GI50 (Malme-3M) was 6.73 µM (inactive) and the GI50 (NCI-H226) was 38.9 µM (inactive). For the same compound, the GI50 (NCI-H23) was 7.73 µM (inactive), the GI50 (NCI-H460) was 1.91 µM (inactive) and the GI50 (NCI-H522) was 16.6 µM (inactive). The GI50 (NCI/ADR-RES) was 24.2 µM (inactive), the GI50 (OVCAR-3) was 10.4 µM (inactive) and the GI50 (OVCAR-4) was 10.2 µM (inactive). For the same compound, the GI50 (OVCAR-5) was 21.7 µM (inactive), the GI50 (OVCAR-8) was 22.6 µM (inactive) and the GI50 (PC-3) was 10.7 µM (inactive). The GI50 (RPMI-8226) was 6.93 µM (inactive), the GI50 (RXF 393) was 16.4 µM (inactive) and the GI50 (SF-268) was 29.2 µM (inactive). The GI50 (SF-295) was 26.6 µM (inactive), the GI50 (SF-539) was 2.21 µM (inactive) and the GI50 (SK-MEL-28) was 12.9 µM (inactive). The GI50 (SK-MEL-2) was 23.2 µM (inactive), the GI50 (SK-MEL-5) was 3.2 µM (inactive) and the GI50 (SK-OV-3) was 18.4 µM (inactive). The GI50 (SN12C) was 11.5 µM (inactive), the GI50 (SNB-19) was 28.6 µM (inactive) and the GI50 (SNB-75) was 24.8 µM (inactive). For the same compound, the GI50 (SR) was 4.05 µM (inactive), the GI50 (SW-620) was 15.5 µM (inactive) and the GI50 (T47D) was 20.2 µM (inactive). The GI50 (TK-10) was 18.1 µM (inactive), the GI50 (U-251) was 19.3 µM (inactive) and the GI50 (UACC-257) was 22 µM (inactive). The GI50 (UACC-62) was 7.59 µM (inactive) and the GI50 (UO-31) was 8.2 µM (inactive).
